This assay addresses T1, SlitOR5/SlitOrco (Spodoptera littoralis, UniProt A0A5J6NJF6).
T1 construct: full-length open reading frames (SlitOr5 1191 bp) in pCS2+, cRNAs co-injected in Xenopus oocytes; heteromer with co-receptor Orco; with Odorant receptor coreceptor
T1 sequence (A0A5J6NJF6 1-397): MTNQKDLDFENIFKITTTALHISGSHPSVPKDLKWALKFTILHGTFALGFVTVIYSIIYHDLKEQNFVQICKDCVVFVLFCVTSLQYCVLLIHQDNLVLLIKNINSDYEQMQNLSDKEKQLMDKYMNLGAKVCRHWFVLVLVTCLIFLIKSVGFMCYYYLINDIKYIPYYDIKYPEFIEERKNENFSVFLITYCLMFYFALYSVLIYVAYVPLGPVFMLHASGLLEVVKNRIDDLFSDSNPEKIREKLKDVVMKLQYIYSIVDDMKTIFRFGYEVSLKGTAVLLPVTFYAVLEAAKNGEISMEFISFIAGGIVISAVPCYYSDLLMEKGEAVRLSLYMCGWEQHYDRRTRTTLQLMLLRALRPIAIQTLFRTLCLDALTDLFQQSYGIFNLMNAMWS
T1 sequence (B6C755 1-473 partner): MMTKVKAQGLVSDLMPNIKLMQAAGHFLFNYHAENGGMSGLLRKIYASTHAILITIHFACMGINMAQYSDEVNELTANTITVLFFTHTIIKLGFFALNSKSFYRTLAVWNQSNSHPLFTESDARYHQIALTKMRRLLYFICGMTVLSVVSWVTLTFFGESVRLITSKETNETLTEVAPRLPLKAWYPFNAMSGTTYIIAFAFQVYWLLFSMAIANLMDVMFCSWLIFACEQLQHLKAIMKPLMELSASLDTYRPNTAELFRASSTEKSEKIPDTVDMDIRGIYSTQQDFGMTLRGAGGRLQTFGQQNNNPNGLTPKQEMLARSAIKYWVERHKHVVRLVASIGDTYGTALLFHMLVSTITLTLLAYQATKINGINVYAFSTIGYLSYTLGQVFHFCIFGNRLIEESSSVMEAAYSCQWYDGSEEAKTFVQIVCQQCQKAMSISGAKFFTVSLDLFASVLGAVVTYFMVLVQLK
Put plainly: two-electrode voltage clamp, inward current in Xenopus oocytes. The assay is classed as cell-based. (Two-electrode voltage clamp holds a large cell at a set potential and records current.)

Each structure is given as a SMILES string.

Regarding `CC/C=C/C=C\CCCCCCCCOC(C)=O` [(Z,E)-9,11-14:OAc, (Z,E)-9,11-tetradecadienyl acetate], the concentration for a half-maximal effect (EC50) came to 0.171 µM. In other words, the sub-micromolar range.

As a reminder, the EC50 is the concentration that produces a half-maximal response. The low end stands for higher potency in that assay, the high end for lower potency in that assay.

Source of the values: publication PMC6904214, “A novel lineage of candidate pheromone receptors for sex communication in moths” (eLife, 2019).
